From US10590140B2, “Tetrahydropyrimidodiazepine and dihydropyridodiazepine compounds for treating pain and pain related conditions” (ESTEVE PHARMACEUTICALS, S.A., priority 2016, dated 2020) come the findings set out here.

The structures appear in SMILES notation. Where only a bound is given, the exact number is not on record here.

The target in the test is human α2δ-1 subunit of Cav2.2 calcium channel (Homo sapiens (Human), UniProt P54289). Nature of the test: Binding assay to human α2δ-1 subunit of Cav2.2 calcium channel ([3H]-Gabapentin). As to conditions: binding to α2δ-1, [3H]-Gabapentin; read-out: Ki (nM) α2δ-1. The procedure, abridged: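 Radioactivity on dried GF/C filters quantified by scintillation after filtration and three cold Tris-HCl (pH 7.4) washes. Incubation ran 60 min at 27° C with [3H]-gabapentin; 10 μM pregabalin gave nonspecific binding.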
Sequence of human α2δ-1 subunit of Cav2.2 calcium channel (P54289 25-1103): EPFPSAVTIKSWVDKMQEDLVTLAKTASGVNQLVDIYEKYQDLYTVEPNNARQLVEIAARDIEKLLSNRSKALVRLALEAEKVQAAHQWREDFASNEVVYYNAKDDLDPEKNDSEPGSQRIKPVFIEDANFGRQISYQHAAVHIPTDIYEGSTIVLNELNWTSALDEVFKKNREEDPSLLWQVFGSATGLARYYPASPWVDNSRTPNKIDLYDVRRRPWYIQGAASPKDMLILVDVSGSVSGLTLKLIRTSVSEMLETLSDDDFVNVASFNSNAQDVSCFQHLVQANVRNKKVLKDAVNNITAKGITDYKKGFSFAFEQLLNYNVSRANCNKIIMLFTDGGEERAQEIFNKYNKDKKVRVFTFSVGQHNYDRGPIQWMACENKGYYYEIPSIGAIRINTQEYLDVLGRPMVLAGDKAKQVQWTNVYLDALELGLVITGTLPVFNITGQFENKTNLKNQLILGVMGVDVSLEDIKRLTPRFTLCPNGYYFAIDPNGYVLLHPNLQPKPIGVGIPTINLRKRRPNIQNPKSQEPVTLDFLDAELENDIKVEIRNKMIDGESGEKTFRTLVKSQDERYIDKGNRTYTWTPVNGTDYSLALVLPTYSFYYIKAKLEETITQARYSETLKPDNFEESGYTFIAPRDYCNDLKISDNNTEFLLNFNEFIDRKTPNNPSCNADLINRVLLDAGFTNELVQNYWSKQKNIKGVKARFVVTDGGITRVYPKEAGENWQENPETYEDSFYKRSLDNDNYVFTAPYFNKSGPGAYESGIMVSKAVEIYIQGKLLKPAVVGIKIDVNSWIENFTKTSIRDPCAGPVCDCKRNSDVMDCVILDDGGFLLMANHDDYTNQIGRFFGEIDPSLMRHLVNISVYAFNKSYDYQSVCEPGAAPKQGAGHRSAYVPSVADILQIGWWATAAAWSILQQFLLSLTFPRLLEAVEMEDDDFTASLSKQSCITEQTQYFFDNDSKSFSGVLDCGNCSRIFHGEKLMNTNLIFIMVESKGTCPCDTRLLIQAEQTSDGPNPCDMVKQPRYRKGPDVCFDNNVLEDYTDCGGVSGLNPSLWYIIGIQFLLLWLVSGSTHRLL
As usually defined, the Ki is the dissociation constant of the complex between target and ligand, obtained from inhibition or displacement. Regarding `CCNc1ncc2c(n1)N(C)CCN(c1cccc(COC(CCN(C)C(=O)OC(C)(C)C)c3ccccc3)c1)C2=O` (stereo not drawn) [Example 77, tert-butyl (3-((3-(2-(ethylamino)-9-methyl-5-oxo-5,7,8,9-tetrahydro-6H-pyrimido[4,5-e][1,4]diazepin-6-yl)benzyl)oxy)-3-phenylpropyl)(methyl) carbamate], the Ki was more than 3000 nM.
With `CCNc1ncc2c(n1)N(C)CCN(c1cccc(CO[C@H](CCN(C)C(=O)OC(C)(C)C)c3ccccc3)c1)C2=O` [Example 78, tert-butyl (R)-(3-((3-(2-(ethylamino)-9-methyl-5-oxo-5,7,8,9-tetrahydro-6H-pyrimido[4,5-e][1,4]diazepin-6-yl)benzyl)oxy)-3-phenylpropyl)(methyl) carbamate] the figure was more than 3000 nM; with `CCNc1ncc2c(n1)N(C)CCN(c1cccc(CO[C@@H](CCN(C)C(=O)OC(C)(C)C)c3ccccc3)c1)C2=O` [Example 79, tert-butyl (S)-(3-((3-(2-(ethylamino)-9-methyl-5-oxo-5,7,8,9-tetrahydro-6H-pyrimido[4,5-e][1,4]diazepin-6-yl)benzyl)oxy)-3-phenylpropyl)(methyl) carbamate], more than 3000 nM; with `CCNc1ncc2c(n1)N(C)CCN(c1cccc(OC(CCN(C)C(=O)OC(C)(C)C)c3cccs3)c1)C2=O` (stereo not drawn) [Example 80, tert-butyl (3-(3-(2-(ethylamino)-9-methyl-5-oxo-5,7,8,9-tetrahydro-6H-pyrimido[4,5-e][1,4]diazepin-6-yl)phenoxy)-3-(thiophen-2-yl)propyl)(methyl) carbamate], more than 3000 nM.
On to `CCNc1ncc2c(n1)N(C)CCN(c1cccc(O[C@H](CCN(C)C(=O)OC(C)(C)C)c3cccs3)c1)C2=O` [Example 81, tert-butyl (R)-(3-(3-(2-(ethylamino)-9-methyl-5-oxo-5,7,8,9-tetrahydro-6H-pyrimido[4,5-e][1,4]diazepin-6-yl)phenoxy)-3-(thiophen-2-yl)propyl)(methyl) carbamate], for which the Ki is more than 3000 nM.
As for `CCNc1ncc2c(n1)N(C)CCN(c1cccc(O[C@@H](CCN(C)C(=O)OC(C)(C)C)c3cccs3)c1)C2=O` [Example 82, tert-butyl (S)-(3-(3-(2-(ethylamino)-9-methyl-5-oxo-5,7,8,9-tetrahydro-6H-pyrimido[4,5-e][1,4]diazepin-6-yl)phenoxy)-3-(thiophen-2-yl)propyl)(methyl) carbamate], the inhibition constant Ki is more than 3000 nM.
Turning to `CCNc1ncc2c(n1)N(C)CCN(c1cccc(COC(CCN(C)C(=O)OC(C)(C)C)c3cccs3)c1)C2=O` (stereo not drawn) [Example 83, tert-butyl (3-((3-(2-(ethylamino)-9-methyl-5-oxo-5,7,8,9-tetrahydro-6H-pyrimido[4,5-e][1,4]diazepin-6-yl)benzyl)oxy)-3-(thiophen-2-yl)propyl)(methyl) carbamate], the Ki is more than 3000 nM.
Take `CCNc1ncc2c(n1)N(C)CCN(c1cccc(CO[C@H](CCN(C)C(=O)OC(C)(C)C)c3cccs3)c1)C2=O` [Example 84, tert-butyl (R)-(3-((3-(2-(ethylamino)-9-methyl-5-oxo-5,7,8,9-tetrahydro-6H-pyrimido[4,5-e][1,4]diazepin-6-yl)benzyl)oxy)-3-(thiophen-2-yl)propyl)(methyl) carbamate]: the Ki is more than 3000 nM.
With `CCNc1ncc2c(n1)N(C)CCN(c1cccc(CO[C@@H](CCN(C)C(=O)OC(C)(C)C)c3cccs3)c1)C2=O` [Example 85, tert-butyl (S)-(3-((3-(2-(ethylamino)-9-methyl-5-oxo-5,7,8,9-tetrahydro-6H-pyrimido[4,5-e][1,4]diazepin-6-yl)benzyl)oxy)-3-(thiophen-2-yl)propyl)(methyl) carbamate] the figure was more than 3000 nM; with `CCNc1ncc2c(n1)N(C)CCN(c1cccc(COCC(c3ccccc3)N(C)C(=O)OC(C)(C)C)c1)C2=O` (stereo not drawn) [Example 86, tert-butyl (2-((3-(2-(ethylamino)-9-methyl-5-oxo-5,7,8,9-tetrahydro-6H-pyrimido[4,5-e][1,4]diazepin-6-yl)benzyl)oxy)-1-phenylethyl)(methyl) carbamate], more than 3000 nM.
`CCNc1ncc2c(n1)N(C)CCN(c1cccc(COC(CN(C)C(=O)OCC[Si](C)(C)C)c3ccccc3)c1)C2=O` (stereo not drawn) [Example 87, 2-(trimethylsilyl)ethyl (2-((3-(2-(ethylamino)-9-methyl-5-oxo-5,7,8,9-tetrahydro-6H-pyrimido[4,5-e][1,4]diazepin-6-yl)benzyl)oxy)-2-phenylethyl)(methyl) carbamate]: the inhibition constant (Ki) is more than 3000 nM.
Turning to `CCNc1ncc2c(n1)N(C)CCN(c1cccc(OCCCN(C)C(=O)OC(C)(C)C)c1)C2=O` [Example 88, tert-butyl (3-(3-(2-(ethylamino)-9-methyl-5-oxo-5,7,8,9-tetrahydro-6H-pyrimido[4,5-e][1,4]diazepin-6-yl)phenoxy)propyl) (methyl)carbamate], the inhibition constant (Ki) is more than 3000 nM.
For `CCNc1ncc2c(n1)N(C)CCN(c1cccc(OCCCN(Cc3ccccc3)C(=O)OC(C)(C)C)c1)C2=O` [Example 89, tert-butyl benzyl (3-(3-(2-(ethylamino)-9-methyl-5-oxo-5,7,8,9-tetrahydro-6H-pyrimido[4,5-e][1,4]diazepin-6-yl)phenoxy)propyl) carbamate], the Ki is more than 3000 nM.
With `CCNc1ncc2c(n1)N(C)CCN(c1cccc(OCCN(C)C(=O)OC(C)(C)C)c1)C2=O` [Example 90, tert-butyl (2-(3-(2-(ethylamino)-9-methyl-5-oxo-5,7,8,9-tetrahydro-6H-pyrimido[4,5-e][1,4]diazepin-6-yl)phenoxy)ethyl) (methyl)carbamate], the Ki was more than 3000 nM.
With `CCNc1ncc2c(n1)N(C)CCN(c1cccc(CCCN(C)C(=O)OC(C)(C)C)c1)C2=O` [Example 91, tert-butyl (3-(3-(2-(ethylamino)-9-methyl-5-oxo-5,7,8,9-tetrahydro-6H-pyrimido[4,5-e][1,4]diazepin-6-yl)phenyl)propyl) (methyl)carbamate], the Ki is more than 3000 nM.
With `CCNc1ncc2c(n1)N(C)CCN(c1cccc(CCN(C)C(=O)OC(C)(C)C)c1)C2=O` [Example 92, tert-butyl (3-(2-(ethylamino)-9-methyl-5-oxo-5,7,8,9-tetrahydro-6H-pyrimido[4,5-e][1,4]diazepin-6-yl)phenethyl)(methyl) carbamate], the Ki is more than 3000 nM.
Next, `CCNc1ncc2c(n1)N(C)CCN(c1cccc(C(C)(C)CN(C)C(=O)OC(C)(C)C)c1)C2=O` [Example 93, tert-butyl (2-(3-(2-(ethylamino)-9-methyl-5-oxo-5,7,8,9-tetrahydro-6H-pyrimido[4,5-e][1,4]diazepin-6-yl)phenyl)-2-methylpropyl)(methyl) carbamate]: more than 3000 nM.
As for `CCNc1ncc2c(n1)N(C)CCN(c1cccc(CN(C)C(=O)OC(C)(C)C)c1)C2=O` [Example 94, tert-butyl (3-(2-(ethylamino)-9-methyl-5-oxo-5,7,8,9-tetrahydro-6H-pyrimido[4,5-e][1,4]diazepin-6-yl)benzyl)(methyl) carbamate], the Ki was more than 3000 nM.
As for `CCNc1ncc2c(n1)N(C)CCN(c1cccc(OC3CCN(C(=O)OC(C)(C)C)C3)c1)C2=O` (stereo not drawn) [Example 95, tert-butyl 3-(3-(2-(ethylamino)-9-methyl-5-oxo-5,7,8,9-tetrahydro-6H-pyrimido[4,5-e][1,4]diazepin-6-yl)phenoxy)pyrrolidine-1-carboxylate], the Ki is more than 3000 nM.
Next, `CCNc1ncc2c(n1)N(C)CCN(c1cccc(COC3(c4ccccc4)CCN(C(=O)OC(C)(C)C)CC3)c1)C2=O` [Example 96, tert-butyl 4-((3-(2-(ethylamino)-9-methyl-5-oxo-5,7,8,9-tetrahydro-6H-pyrimido[4,5-e][1,4]diazepin-6-yl)benzyl)oxy)-4-phenylpiperidine-1-carboxylate]: more than 3000 nM; `CCNc1ncc2c(n1)N(C)CCN(c1cccc(-c3nnc(C)o3)c1)C2=O` [Example 97, 2-(ethylamino)-9-methyl-6-(3-(5-methyl-1,3,4-oxadiazol-2-yl)phenyl)-6,7,8,9-tetrahydro-5H-pyrimido[4,5-e][1,4]diazepin-5-one]: less than 100 nM.
Consider `Cc1nnc(-c2cccc(N3CCN(C)c4nc(NCC(C)C)ncc4C3=O)c2)o1` [Example 98, 2-(isobutylamino)-9-methyl-6-(3-(5-methyl-1,3,4-oxadiazol-2-yl)phenyl)-6,7,8,9-tetrahydro-5H-pyrimido[4,5-e][1,4]diazepin-5-one], for which the Ki was more than 3000 nM.
As for `COCCNc1ncc2c(n1)N(C)CCN(c1cccc(-c3nnc(C)o3)c1)C2=O` [Example 99, 2-((2-methoxyethyl)amino)-9-methyl-6-(3-(5-methyl-1,3,4-oxadiazol-2-yl)phenyl)-6,7,8,9-tetrahydro-5H-pyrimido[4,5-e][1,4]diazepin-5-one], the Ki is more than 3000 nM.
Regarding `CNc1ncc2c(n1)N(C)CCN(c1cccc(-c3nnc(C)o3)c1)C2=O` [Example 100, 9-methyl-6-(3-(5-methyl-1,3,4-oxadiazol-2-yl)phenyl)-2-(methylamino)-6,7,8,9-tetrahydro-5H-pyrimido[4,5-e][1,4]diazepin-5-one], the Ki lay in the range of 100 to 500 nM.
`Cc1nnc(-c2cccc(N3CCN(C)c4nc(N)ncc4C3=O)c2)o1` [Example 101, 2-amino-9-methyl-6-(3-(5-methyl-1,3,4-oxadiazol-2-yl)phenyl)-6,7,8,9-tetrahydro-5H-pyrimido[4,5-e][1,4]diazepin-5-one]: the inhibitory constant (Ki) was in the range of 500 to 3000 nM.
With `Cc1nnc(-c2cccc(N3CCN(C)c4nc(NCc5ccccc5)ncc4C3=O)c2)o1` [Example 102, 2-(benzylamino)-9-methyl-6-(3-(5-methyl-1,3,4-oxadiazol-2-yl)phenyl)-6,7,8,9-tetrahydro-5H-pyrimido[4,5-e][1,4]diazepin-5-one] the figure was more than 3000 nM; with `Cc1nnc(-c2cccc(N3CCN(C)c4nc(NC5CCCCC5)ncc4C3=O)c2)o1` [Example 103, 2-(cyclohexylamino)-9-methyl-6-(3-(5-methyl-1,3,4-oxadiazol-2-yl)phenyl)-6,7,8,9-tetrahydro-5H-pyrimido[4,5-e][1,4]diazepin-5-one], more than 3000 nM.
